Source: patent publication US20060211705A1, “'N-(2-chloro-6-methylphenyl)-2-[[6-[4-(2-hydroxyethyl)-1-piperazinyl]-2-methyl-4-pyrimidinyl]amino]-5-thiazolecarboxamides metabolites” (priority 2005, published 2006)

Legend:
[1] = Radioactive metabolites in plasma, urine and feces after single oral dose of [14C] compound (I) to monkeys; assay type: in vivo, cynomolgus monkey; conditions: for % Distribution of radioactive metabolites in pooled plasma, Monkey (4 h): oral 10 mg/kg [14C] compound (I), plasma 4 h; for Metabolites in Feces (0-168 hr), Monkey, % Dose / Metabolites in Feces (0-168 hr), Monkey, % Rad / Metabolites in Urine (0-168 hr), Monkey, % Dose / Metabolites in Urine (0-168 hr), Monkey, % Rad: oral 10 mg/kg; for Metabolites in Feces (0-168 hr), Monkey, % Dose / Metabolites in Feces (0-168 hr), Monkey, % Rad: pooled fecal extracts 0-168 hr; for Metabolites in Urine (0-168 hr), Monkey, % Dose / Metabolites in Urine (0-168 hr), Monkey, % Rad: pooled urine 0-168 hr
Method: A separate bile-duct cannulated (BDC) monkey study was also conducted.
(§1) Plasma samples were segregated by collection time and equal volumes of individual plasma samples at a given time point were combined for biotransformation profiling.
(§2) The C-14 label was on the carbon-2 of the thiazole ring.
(§3) HPLC was performed on an Agilent 1100™ system equipped with binary pumps, autoinjector, and a column heater. A Phenomenex Synergy Polar-RP® column (4.6×250 mm, 5 micron) was used for metabolite separation. All HPLC analyses were performed at 1 mL/min flow rate at 35° C. The HPLC mobile phase consisted of (A) water with 0.1% formic acid and (B) acetonitrile with 0.1% formic acid.
(§4) Each fraction of column eluent was evaporated to dryness on a Savant Speed-Vac (Savant Instruments Inc., Holbrook, N.Y.) and counted for radioactivity with a Packard Top Count® microplate scintillation analyzer (Packard Biosciences, Downers Grove, Ill.).
(§5) The volumes of pooled plasma processed for HPLC analysis for rat, monkey and human ranged between 1.5 and 8.0 mL. Pooled plasma samples were extracted with methanol/acetonitrile (1:1) at a ratio of 2 volumes solvent to 1 volume of plasma. The mixtures were vortex mixed, sonicated for 5 min, and centrifuged at 3500 rpm for 10 min. The supernatants were transferred into new tubes. The remaining pellets were extracted two more times with 3 mL of methanol/acetonitrile (1:1). The supernatants were combined and evaporated to dryness in a Savant Speed-Vac (Savant Instruments, Inc., Holbrook, N.Y.). The residue was reconstituted into 0.35 to 0.45 mL of 30% acetonitrile in water, vortex mixed and centrifuged at 13000 rpm for 5 min (American Scientific Products Biofuge A centrifuge, Heraeus Sepatech GmbH, Germany). The supernatant was injected onto the HPLC for profiling. Aliquots of the reconstituted samples (30 μl) were also counted on the liquid scintillation counter (LSC) to determine the recovery of radioactivity.
(§6) The pooled monkey and human urine samples (3-5 mL) were extracted with 2 volumes of acetonitrile/acetone (1:1). The mixtures were vortex mixed, sonicated and centrifuged at 3500 rpm for 10 min. The supernatants were evaporated to dryness. The residue was suspended in 0.3-0.5 mL of 30% acetonitrile in water and centrifuged at 13000 rpm for 5 min. Aliquots of the supernatants were injected onto the HPLC or analyzed by LSC for radioactivity recovery. Pooled urine samples from BDC monkeys and rats were centrifuged at 13000 rpm for 10 min and injected onto the HPLC for profiling without further treatment.
(§7) The amount of fecal homogenate used for analysis was 0.20, 0.19 and 0.51 g for rat, monkey and human, respectively. Each pooled fecal homogenate was extracted by addition of 3 volumes of acetonitrile/methanol (1:1) to 1 volume of fecal homogenate and mixed on a vortex mixer. The mixture was sonicated for 5 min and then centrifuged at 3000 rpm for 10 min. The supernatants were removed and saved. The extraction was repeated two additional times and the supernatants were combined and evaporated to dryness on a Savant Speed-Vac. […] An aliquot of the supernatant was injected onto the HPLC or analyzed by LSC for radioactivity recovery.
(§8) The LC/MS system used for analysis of plasma, urine, bile, and fecal samples consisted of an Agilent 1100™ HPLC system connected to a Finnigan LCQ-DecaXP mass spectrometer. Samples were analyzed using positive electrospray ionization. The capillary temperature used for analysis was 320° C., and the nitrogen gas flow rate, spray current, and voltages were adjusted to give maximum sensitivity. The HPLC conditions were described in section 3.3.1.
(§9) Counts per min (CPM) were determined on a Packard TopCount NXT microplate scintillation and luminescence counter. For each injection, the average CPM value (2-4 CPM) obtained from fractions between 2-3 min (column void) in the chromatogram was subtracted from the CPM value of each fraction.

[2] = Radioactive metabolites in plasma, urine and feces after single oral dose of [14C] compound (I) to rats; assay type: in vivo, Sprague-Dawley rat; conditions: for Metabolites in Feces (0-168 hr), Rat, % Dose / Metabolites in Feces (0-168 hr), Rat, % Rad (% of total radioactivity in sample) / Metabolites in Urine (0-168 hr), Rat, % Dose / Metabolites in Urine (0-168 hr), Rat, % Rad (% of total radioactivity in sample): oral 15 mg/kg; for Metabolites in Feces (0-168 hr), Rat, % Dose / Metabolites in Feces (0-168 hr), Rat, % Rad (% of total radioactivity in sample): pooled fecal extracts 0-168 hr; for Metabolites in Urine (0-168 hr), Rat, % Dose / Metabolites in Urine (0-168 hr), Rat, % Rad (% of total radioactivity in sample): pooled urine 0-168 hr; for % Distribution of radioactive metabolites in pooled plasma, Rat (4 h): oral 15 mg/kg [14C] compound (I), plasma 4 h
Method: as §1, §2, §3, §4, §5, §6, §7, §8
as §9, with “fraction. Biotransformation profiles were prepared by plotting the background subtracted CPM values against time-after-injection.” for “fraction.”

[3] = Radioactive metabolites in urine and bile after IV administration of [14C] compound (I) to bile-duct cannulated monkeys; assay type: in vivo, monkey; conditions: IV infusion 2 mg/kg; for Metabolites in BDC-Monkeys (0-72 hr), Bile, % Dose / Metabolites in BDC-Monkeys (0-72 hr), Bile, % Rad: bile 0-72 hr; for Metabolites in BDC-Monkeys (0-72 hr), Urine, % Dose / Metabolites in BDC-Monkeys (0-72 hr), Urine, % Rad (% of total radioactivity in sample): urine 0-72 hr
Method: A separate bile-duct cannulated (BDC) monkey study was also conducted. […]
as §2, §3, §4, §6
A pooled bile sample (0-72 h) from BDC monkeys was diluted fifteen-fold with 20% acetonitrile in water with 0.1% formic acid. The diluted sample was centrifuged at 13000 rpm for 5 min. Aliquots of the supernatant was injected onto HPLC or analyzed by LSC for radioactivity recovery.
as §8
as §9, with “fraction. Biotransformation profiles were prepared by plotting the background subtracted CPM values against time-after-injection. Radioactivity peaks in the biotransformation profiles were reported as a percentage of the total radioactivity (after background subtraction) collected during the entire HPLC run.” for “fraction.”

| % Distribution of radioactive metabolites in pooled plasma, Monkey (4 h) [1] [%] | Metabolites in Feces (0-168 hr), Monkey, % Dose [1] [%] | Metabolites in Feces (0-168 hr), Monkey, % Rad [1] [%] | Metabolites in Urine (0-168 hr), Monkey, % Dose [1] [%] | Metabolites in Urine (0-168 hr), Monkey, % Rad [1] [%] | Metabolites in Feces (0-168 hr), Rat, % Dose [2] [%] | Metabolites in Feces (0-168 hr), Rat, % Rad (% of total radioactivity in sample) [2] [%] | Metabolites in Urine (0-168 hr), Rat, % Dose [2] [%] | Metabolites in Urine (0-168 hr), Rat, % Rad (% of total radioactivity in sample) [2] [%] | Metabolites in BDC-Monkeys (0-72 hr), Bile, % Dose [3] [%] | Metabolites in BDC-Monkeys (0-72 hr), Bile, % Rad [3] [%] | Metabolites in BDC-Monkeys (0-72 hr), Urine, % Dose [3] [%] | Metabolites in BDC-Monkeys (0-72 hr), Urine, % Rad (% of total radioactivity in sample) [3] [%] | % Distribution of radioactive metabolites in pooled plasma, Rat (4 h) [2] [%] | SMILES |
| --- | --- | --- | --- | --- | --- | --- | --- | --- | --- | --- | --- | --- | --- | --- |
| 2.8 | 11.7 | 15.2 | 0.02 | 0.6 | 7.6 | 9.9 | 0.6 | 9.9 | 2.4 | 3.5 | 0.3 | 2.7 | – | Cc1nc(Nc2ncc(C(=O)Nc3c(C)cc(O)cc3Cl)s2)cc(N2CCN(CCO)CC2)n1 [M20 (V)] |
| 32.1 | 24.7 | 32.2 | 0.6 | 21.2 | 41.6 | 54.5 | 0.7 | 11.6 | 3.2 | 4.7 | 0.1 | 1.4 | 52.8 | Cc1nc(Nc2ncc(C(=O)Nc3c(C)cccc3Cl)s2)cc(N2CCN(CCO)CC2)n1 [Parent (I), N-(2-Chloro-6-methylphenyl)-2-[[6-[4-(2-hydroxyethyl)-1-piperazinyl]-2-methyl-4-pyrimidinyl]amino]-5-thiazolecarboxamide] |
| 3.0 | 2.9 | 3.8 | 0.05 | 1.7 | 1.9 | 2.5 | 0.3 | 4.4 | 0.5 | 0.7 | – | – | 2.6 | Cc1nc(Nc2ncc(C(=O)Nc3c(C)cccc3Cl)s2)cc(N2CCNCC2)n1 [M4 (II)] |
| 0.7 | 6.6 | 8.6 | 0.06 | 1.9 | 3.1 | 4.0 | – | – | 3.0 | 4.4 | 0.1 | 1.4 | – | Cc1nc(Nc2ncc(C(=O)Nc3c(Cl)cccc3CO)s2)cc(N2CCN(CCO)CC2)n1 [M24 (VI), N-(2-chloro-6-(hydroxymethyl)phenyl)-2-(6-(4-(2-hydroxyethyl)piperazin-1-yl)-2-methylpyrimidin-4-ylamino)thiazole-5-carboxamide] |
| 2.6 | – | – | 1.1 | 35.8 | – | – | 3.4 | 52.4 | 5.0 | 7.4 | 7.0 | 70.7 | 18.7 | Cc1nc(Nc2ncc(C(=O)Nc3c(C)cccc3Cl)s2)cc(N2CC[N+]([O-])(CCO)CC2)n1 [M5 (III)] |
| 2.7 | 14.0 | 18.2 | 0.06 | 2.2 | 13.2 | 17.3 | 0.4 | 6.5 | 6.3 | 9.4 | 0.3 | 2.8 | 2.2 | Cc1nc(Nc2ncc(C(=O)Nc3c(C)cccc3Cl)s2)cc(N2CCN(CC(=O)O)CC2)n1 [M6 (IV), 2-(4-(6-(5-((2-Chloro-6-methylphenyl)carbamoyl)thiazol-2-ylamino)-2-methylpyrimidin-4-yl)piperazin-1-yl)acetic acid] |
